In patent US20190070128A1, “USE OF CANNABIDIVARIN IN THE TREATMENT OF AUTISM SPECTRUM DISORDER, ASSOCIATED DISORDERS AND SCHIZOPHRENIA” (GW Research Limited, priority 2016, published 2019):

Tests used:
Ube3am-/p+ (AS) mice [1] = experiment: rotarod test in Angelman syndrome mice; format: in vivo, mouse; conditions: chronic treatment (30 days), 20 mg/kg i.p., vs AS vehicle
Experimental: (§1) Heterozygous mice with maternal deficiency of Ube3A (Ube3am−/p+) and wild type (Ube3am+/p+) were purchased from The Jackson Laboratory (Jackson code: B6.12957-Ube3a tm1Alb/J) and maintained in a C57BL/6 background.
(§2) Drugs were dissolved in 1:1:18 ethanol:cremophor:0.9% saline, for intraperitoneal (i.p.) administration. Drug treatment was performed daily for 35 days. CBDV was administered at 20 mg/kg.
Rotarod: The rotarod test assesses balance and motor coordination of mice. Mice have been measured for the time (in seconds) of equilibrium before falling on a rotary cylinder by a magnet that, activated from the fall of the mouse on the plate, allows to record the time of permanence on the cylinder. […] The animals were analysed by 2 separate tests at 1-h interval in the same day.

Ube3am-/p+ (AS) mice [2] = experiment: tail suspension test in Angelman syndrome mice; format: in vivo, mouse; conditions: 20 mg/kg i.p., vs AS vehicle
Experimental: as §1, §2
Tail suspension: The tail suspension test assesses depressive-like behaviour in mice. Mice were individually suspended by the tail on a horizontal bar (50 cm from floor) using adhesive tape placed approximately 4 cm from the tip of the tail. The duration of immobility was recorded in seconds over a period of 6 minutes by a time recorder. Immobility time was defined as the absence of escape-oriented behaviour.

VPA-exposed rats = experiment: locomotor activity and repetitive behaviours, prenatal VPA model; format: in vivo, rat
Experimental: Pregnant Sprague-Dawley rats (Charles River, Calco, Italy), received a single intraperitoneal injection of 500 mg/kg sodium valproate on the 12.5 day after conception, and control females were injected with physiological saline at the same time. Sodium valproate (Sigma Aldrich, Milan, IT) was dissolved in saline at a concentration of 250 mg/ml.
CBDV was dissolved in ethanol, cremophor and saline (1:1:18). Symptomatic treatment with CBDV at doses of 0.2, 2, 20, and 100 mg/kg/day i.p. was performed starting from PND 34 (early adolescence) till 56 (early adulthood), both in male and female offspring of dams injected with VPA 500 mg/kg (or vehicle) on day 12.5 after conception. At PND 56, a series of behavioural tests was performed in order to assess the effect of chronic CBDV on sociability, social novelty, short-term memory, locomotion and stereotyped/repetitive behaviours.
Locomotor activity and repetitive behaviours: Locomotor activity was recorded in an activity cage for 20 minutes with the aid of Anymaze program (Ugo Basile, Italy). In this period, repetitive behaviours (self-grooming and digging) were measured by an observer blind to the treatment group.

[3] = tested on: neuroinflammatory markers (GFAP, CD11b, TNF-α); experiment: neuroinflammation studies, hippocampus, Western blotting, prenatal VPA model; format: in vivo, rat
Experimental: At the end of the study, on PND 59, male rats treated with CBDV 20 mg/kg i.p. were sacrificed and the hippocampus was collected 24 hours after the last CBDV injection and stored at −80° C. for evaluation of changes in protein expression of components of the endocannabinoid system (CB1 and CB2 receptors, the endocannabinoid degrading enzymes, FAAH and MAGL and the synthetic enzymes, DAGLα and NAPE-PLD); neuroinflammatory markers (GFAP (astrocytic marker), Iba1 (microglial marker), CD11 b (activated microglial marker), TNF-α (proinflammatory cytokine) and iNOS (inflammatory mediator)); synaptic markers (Synaptophysin (synaptic vesicle protein), PSD-95 (post synaptic density protein) and the neurotrophins, BDNF and IGF by Western blotting.

Fmr1 KO mice = experiment: novel object recognition task in Fmr1 KO mice; format: in vivo, mouse; conditions: for discrimination index level: chronic
Experimental: Fmr1 KO mice and wild type mice were obtained and housed four per cage in a temperature of 21° C.±1° C. and humidity of 55%±10% controlled environment. Food and water were available ad libitum. All experiments were performed during the light phase of a 12 hour light/dark cycle (08:00 to 20:00). Animals were handled for one week before the start of experiments. All behavioural tests were performed by researchers blind to the different experimental groups.
On day one mice were habituated for 10 minutes to the empty V-maze in which the task was to be performed. On the second day the mice went back to the maze for 10 minutes which contained two identical objects at the end of each corridor in the V-maze.
The following day the mice were placed again in the same maze for a further 10 minutes but one of the familiar objects was replaced for a novel object. The total time spent exploring the novel and familiar object was recorded. A discrimination index was calculated as the difference between the time spent exploring the novel and familiar object divided by the total time exploring the two objects. A high discrimination index (0.3-0.5) is considered to reflect memory retention for the familiar object.
Adult mice (10-15 weeks old) were treated either acutely with one dose of CBDV on […] or were treated once daily with CBDV for 7 consecutive days. Mice were evaluated in the novel object recognition task after the first and sixth day of CBDV administration. Doses of CBDV used were 2, 10, 20, 100 and 200 mg/kg.

MeCP2 KO mice = experiment: survival of MeCP2 KO and WT mice; format: in vivo, mouse; conditions: for survival rate: vehicle 25%
Experimental: CBDV was administered daily at the dose of 2, 20 and 200 mg/kg i.p. starting from PND 28 and the following signs were scored every other day: hindlimb clasping (indication of motor imbalance), tremor, gait (measure of coordination), breathing, mobility and general condition.
The CBDV was dissolved in ethanol, cremophor and saline (1:1:18).
Starting from PND 28, mice received a daily intraperitoneal injection of CBDV (or vehicle) at the dose of 2, 20 and 200 mg/kg. Animals were then scored every other day to evaluate the effect of CBDV treatment on motor symptoms (hindlimb clasping, gait, mobility) as well as neurological signs and general conditions (breathing abnormalities, tremors and general condition) present in MeCP2 knockout (KO) mice.

[4] = biological target: T1, CB1 cannabinoid receptors (Mus musculus, UniProt P47746); conditions: MF1 mouse brain membranes; extract compared with purified CBDV; cited from earlier work
T1 construct: in both MF1 mouse brain and hCB1-CHO cell membranes; from tissue; host or cells: MF1 mouse brain membranes
T1 sequence (P47746 whole entry): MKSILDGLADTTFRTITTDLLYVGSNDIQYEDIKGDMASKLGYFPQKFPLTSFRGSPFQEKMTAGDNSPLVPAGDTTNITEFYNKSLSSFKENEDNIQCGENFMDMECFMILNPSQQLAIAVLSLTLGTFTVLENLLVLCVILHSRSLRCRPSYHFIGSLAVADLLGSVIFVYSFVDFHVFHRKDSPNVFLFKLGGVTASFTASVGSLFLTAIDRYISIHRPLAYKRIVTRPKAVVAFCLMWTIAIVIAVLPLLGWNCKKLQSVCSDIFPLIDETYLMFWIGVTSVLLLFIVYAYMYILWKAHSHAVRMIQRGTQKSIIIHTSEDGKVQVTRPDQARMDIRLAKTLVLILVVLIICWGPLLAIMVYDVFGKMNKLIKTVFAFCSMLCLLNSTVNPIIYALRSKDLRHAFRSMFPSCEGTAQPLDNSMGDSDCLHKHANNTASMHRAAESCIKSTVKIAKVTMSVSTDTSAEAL

C=C(C)[C@@H]1CCC(C)=C[C@H]1c1c(O)cc(CCC)cc1O [CBDV, Cannabidivarin]
latency to fall (Ube3am-/p+ (AS) mice [1]): reduced
duration of immobility time (Ube3am-/p+ (AS) mice [2]): significantly reduced
time spent in compulsive self-grooming (VPA-exposed rats; females, 2 and 100 mg/kg): significantly normalize
time spent in compulsive self-grooming (VPA-exposed rats; males, 20 mg/kg): significantly normalize
locomotion increased by VPA (VPA-exposed rats; males, 2, 20 and 100 mg/kg): normalize
expression of increased inflammatory markers (GFAP, CD11b, TNFα) in hippocampus ([3]; VPA-exposed male rats, chronic CBDV 20 mg/kg i.p.): completely normalised
expression of inflammatory markers in hippocampus ([3]; control rats, chronic CBDV): no effect
increase of discrimination index over vehicle treated mice (Fmr1 KO mice; acute treatment, 2 mg/kg): not significant
discrimination index (Fmr1 KO mice; acute treatment, any of the doses): no effect
discrimination index over vehicle treated knockout mice (Fmr1 KO mice; chronic (once daily for 7 days), 20 and 100 mg/kg): statistically significant increase
discrimination index level (Fmr1 KO mice; 20 mg/kg): over 0.3
discrimination index level (Fmr1 KO mice; 100 mg/kg): over 0.3
survival rate (MeCP2 KO mice; MeCP2 KO mice, 2 mg/kg): 62.5%
survival rate (MeCP2 KO mice; MeCP2 KO mice, 20 mg/kg): 62.5%
survival rate (MeCP2 KO mice; MeCP2 KO mice, 200 mg/kg): 75%
survival measured at PND 67 (MeCP2 KO mice; MeCP2 KO mice, all three doses (2, 20, 200 mg/kg)): increase survival
lethality (MeCP2 KO mice; WT mice treated with CBDV): No lethality
affinity for CB1 cannabinoid receptors [4]: neither bound with high enough affinity
